Columns and labels:
[1] = target: T1, tyrosinase (Homo sapiens, UniProt P14679); test: Tyrosinase activity in living skin explant sections (L-DOPA method of Laidlaw and Blackberg); assay type: cell-based; details: non-irradiated skin explants, topical gel 2 mg/cm^2, Day 5
T1 construct: Where tyrosinase is active, L-DOPA is oxidized, producing an observable black pigment in the melanocytes; from tissue; host or cells: living abdominal skin explants (melanocytes)
T1 sequence (P14679 19-529): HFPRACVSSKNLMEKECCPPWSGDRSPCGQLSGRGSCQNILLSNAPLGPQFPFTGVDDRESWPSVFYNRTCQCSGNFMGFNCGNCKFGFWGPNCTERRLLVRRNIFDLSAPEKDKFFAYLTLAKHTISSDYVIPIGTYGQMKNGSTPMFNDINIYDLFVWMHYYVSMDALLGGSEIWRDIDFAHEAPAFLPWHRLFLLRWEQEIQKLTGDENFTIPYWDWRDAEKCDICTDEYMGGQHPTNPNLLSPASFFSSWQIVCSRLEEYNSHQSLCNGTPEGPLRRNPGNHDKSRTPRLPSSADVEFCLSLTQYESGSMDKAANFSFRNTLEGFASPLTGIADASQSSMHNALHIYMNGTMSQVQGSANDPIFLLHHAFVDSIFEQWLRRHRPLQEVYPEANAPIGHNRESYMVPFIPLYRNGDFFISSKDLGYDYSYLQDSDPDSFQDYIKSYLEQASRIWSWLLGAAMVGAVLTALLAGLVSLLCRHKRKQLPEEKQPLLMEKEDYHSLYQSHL

[2] = tested on: melanocyte dendricity; test: Melanocyte dendricity in skin explant cryostat sections, Anti-Melan-A immunofluorescence; assay type: cell-based, human; details: Day 5
Protocol: (§1) Skin samples from an abdominal plastic surgery patient are placed in a specific explant survival medium BEM from Centre de Recherche Laboratoire BIO-EC (Clamart, France). Once daily, the living skin explants are irradiated with a Vilber Lourmat solar simulator RMX3W (Marne-la-Vallee, France) at a dose of 75 mJ/cm^2 within a wavelength range of 290-330 nm and a peak of 312 nm (UVB) for 80 seconds.
(§2) Five minutes following irradiation, the skin samples are treated with a topical application of 2 mg/cm^2 of a gel formulation comprising the Phytocytol™ BLM, a stable flavonoid solution according to the present invention. The gel formulation is made according to the following procedure: Three separate gels, each containing one of baicalin, luteolin and myricetin, are prepared according to the same procedure. In a main beaker, add DI Water, Germall Plus and Carbopol Ultrez-10. When Carbopol is dispersed add ¼ of the indicated amount of Neutrol TE. Add Polycast-3 and continue mixing. Add the flavonoid solution (A, B and C) until homogenous. Add the remaining Neutrol TE and mix. The resulting Baicalin Gel, Luteolin Gel and Myricetin Gel are mixed in equal parts to form a gel having a pH of 6.91 and a viscosity of 30,500 cps (LV4@12 rpm). […]

[3] = tested on: melanin within the melanocytes; test: Melanin deposits in melanocytes of skin explants, Fontana-Masson silver stain; assay type: cell-based, human; details: Day 5
Protocol: as §1, §2

Q: For `OC[C@H]1O[C@@H](Oc2ccc(O)cc2)[C@H](O)[C@@H](O)[C@@H]1O` [arbutin], which “level of tyrosinase activity” value [1] is on record?
A: Its value is “substantially greater compared to the arbutin-treated samples”.

Q: What about the “level of melanocyte dendricity” value ([2]; after UVB irradiation, skin explants) of the same compound?
A: The value was “low level of dendricity”.

Q: What about the “level of melanocyte dendricity” value ([2]; non-UVB irradiated skin explants) of the same compound?
A: Its value is “low level of dendricity”.

Q: And the melanin deposits ([3]; absence of UVB irradiation)?
A: Its melanin deposits is “low levels of melanin deposits”.

Q: And the melanin deposits ([3]; after exposure to UVB irradiation)?
A: The melanin deposits was “An increase in melanin deposits is not observed”.

Reference: patent US20100227826A1, “Stable Flavonoid Solutions” (priority 2005, published 2010)
